Test results taken from patent US10258043B2, “Pesticide compositions and methods for controlling invertebrate pests” (Adama Makhteshim Ltd., priority 2012, dated 2019).

Test system: German cockroaches
Experiment: Second series of evaluations: pyriproxyfen and novaluron alone and in combination on three substrates
Format: in vivo
Details: preliminary results
Procedure: Ceramic tile, vinyl tile, and unpainted plywood panels measuring 6″×6″ were cleaned using soapy water to remove any residue left over from the manufacturing process and left to dry overnight. Six (6) L plastic storage boxes (Sterlite®) with lids were purchased from a local hardware store (Home Depot, Riverbank, Calif.) and cleaned as well and allowed to dry. Each substrate was treated with 0.95 mL of test material (1 gallon/1,000 ft^2 equivalent) prepared in accordance with Example 1 using a Pipetteman 1000, with the material being evenly distributed over the entire surface of the substrate using an acid brush. The material was allowed to dry and the substrates were placed into the plastic storage boxes, one per box. A 5 cm Petri dish was filled with dog food and a slice of orange for nourishment, and a water tube was added for moisture. The food dish was placed directly on the treated substrate to force exposure of the cockroaches. A 6″ rolled piece of corrugated cardboard was placed in each replicate for harborage. A thin layer of petroleum jelly/mineral oil was applied to the rim to prevent escape.
Approximately forty (40) second and third instar nymphs were placed in each replicate and the lid was placed on top. Five replicates were prepared, one for each of the four treatments set forth in Table 2 and an untreated control. […]

Compound	Molting abnormalities of mid-instar cockroaches (all three substrates)	Morphological characteristics of juvenoid activity (individuals alive in these treatment groups)
O=C(NC(=O)c1c(F)cccc1F)Nc1ccc(OC(F)(F)C(F)OC(F)(F)F)c(Cl)c1 (racemic) [novaluron, (RS)-1-[3-chloro-4-(1,1,2-trifluoro-2-trifluoromethoxyethoxy)phenyl]-3-(2,6-difluorobenzoyl)urea]	molting abnormalities	
CC(COc1ccc(Oc2ccccc2)cc1)Oc1ccccn1 (centres unmarked) [pyriproxyfen, 4-phenoxyphenyl 2-(2-pyridyloxy)propyl ether]		twisted wings and darkened cuticle
